Results published in patent US10668032B2 (SyneuRx International (Taiwan) Corp., priority 2016, dated 2020).

Tests used:
[1] = tested on: B6SJL-Tg(SOD1*G93A)1Gur/J mice; experiment: SOD1*G93A transgenic ALS mice: behavioral tasks, body weight, survival; assay type: in vivo, mouse
Excerpt: Disease onset of B6SJL-Tg(SOD1*G93A)1Gur/J mice occurred at around 80-90 days of age, while progressive clinical weakness followed by paralysis and death occurred by 135-140 days.
In cohort 2, the male transgenic and wild-type littermates were randomly divided into 3 groups as cohort 1: vehicle (n=5), vehicle-ALS (n=6), and drug-ALS (n=11). Disease onset occurred at around 110-120 days of age, while progressive clinical weakness followed by paralysis and death occurred at around 150-155 days.
In cohort 1, drug regimen was initiated 8 weeks after birth and continued until the end of study. […] The vehicle groups received injections of the same volume of saline.
The drug regimen for cohort 2 was the same as that for cohort 1 except the dosing was started at 10 weeks of age.
Open field is an animal behavioral task that can monitor the overall spontaneous locomotor activity. Each animal was placed in an empty test arena (60 cm×60 cm plastic boxes) for 1 hour, and its activity was assessed by VersaMax Animal Activity Monitoring System (AccuScan Instruments, Inc. Columbus Ohio, USA). Total traveling distance, number of rearing movements and rearing time were analyzed. Performance of open field was measured 1-2 times per week.
In the open field task, each animal was placed in an empty test arena (43.2 cm×21.6 cm plastic boxes) for 1 hour, and its activity was assessed by Photobeam Activity System (San Diego Instruments, USA). Total traveling and rearing activities (beam break times) were analyzed. Performance of open field was measured once per week.
Rorarod task, which requires animals to balance and walk on a rotating cylinder, is a widely used test to measure coordinated motor skills. The mice were placed on a 5-channel automatic revolving rod apparatus (PanLab/Harvard Apparatus). […] After the training sessions, motor coordination was evaluated at 16 rpm for a maximum of 5 min. […] Performance of rotarod task was measured once per week, and the longest retention time for each animal was recorded.
A metal wire mesh (0.2 cm diameter, 1 cm×1 cm wide grid) was fixed horizontally 30 cm above the table. […] The latency to fall was recorded when the animal fell, and a maximum time of 180 s was assigned for analysis. There were two sessions for each individual with a 30-min interval, and the longer time was recorded. Performance of hanging test was measured once per week.
For each animal, body weight was measured weekly starting at 10 weeks of age. […]
Date and cause of death were recorded for each mouse. Animals were closely monitored and euthanized if moribund, which was defined as the inability of mice to right themselves 30 seconds after being placed on a side, in accordance with the criteria for severe morbidity. The moribund mice were recorded as “dead”, and euthanized using carbon dioxide.

primary cortical cells = experiment: Neurogenesis (BrdU/NeuN co-localization) in primary cortical culture after Aβ25-35; assay type: cell-based, rat; settings: 0.5 mM, 4 days; compared with the other two drugs
Protocol: Primary cortical cultures were prepared from embryonic day 18 (E18) fetal Spragu-Dawley (SD) rat brains. Culture medium was removed from cells and replace with BrdU labeling solution and incubated at 37° C. for 4 days aligned with treatments after Aβ25-35 for 2 days. Cells were fixed in 4% PFA and washed in PBS, blocked with 2% bovine serum albumin (BSA) and 0.03% Triton X-100 in PBS, acid-washed with 2N HCl and phosphate/citric acid buffer (pH 7.4). Next, anti-BrdU primary antibody (1:250, Thermo Scientific) or anti-NeuN primary antibody (1:300, Abcam) were added. The goat anti-rat IgGAlexa Fluor-conjugated secondary antibodies (1:200; Thermo Scientific); anti-mouse IgG Alexa Fluor-conjugated secondary antibodies (1:500; Thermo Scientific) were applied to recognize the primary antibodies of the BrdU and NeuN respectively.
(§1) The coverslips were observed under a digital imaging fluorescence microscope (Olympus BX61; Japan) equipped with filter sets to detect the corresponding fluorescence signals.
The second part of mechanism study was focused on neurogenesis. The impairment of neurogenesis in the adult hippocampus has been an important evidence of the pathogenesis of Alzheimer's disease. […]

[2] = tested on: GFAP positive cells in cortical culture; experiment: GFAP immunocytochemistry in cortical culture after Aβ25-35; assay type: cell-based, rat
Protocol: Cells were fixed in 4% PFA and washed in PBS, blocked with 2% bovine serum albumin (BSA) and 0.03% Triton X-100 in PBS, and then incubated with mouse monoclonal antibody against microtubule-associated protein-2 (MAP-2) (Cat. No. MAB378, 1:150, CHEMICON International, Inc., Temecula, Calif., USA); rabbit polyclonal antibody against GFAP (Cat. No. Z0334, 1:600, DakoCytomation Denmark A/S, Denmark). The goat anti-mouse IgG Alexa Fluor-conjugated secondary antibodies (1:500; Cat No. A11003, Thermo Scientific); anti-rabbit IgG Alexa Fluor-conjugated secondary antibodies (1:500; Thermo Scientific) were applied respectively to recognize the primary antibodies of the MAP-2 and GFAP.
as §1
Glial fibrillary acidic protein (GFAP) is an intermediate filament protein expressed by cells in the CNS, and is also recognized as an astrocyte maturation marker. Upregulation of GFAP, indicating gliosis, is commonly observed after CNS lesion; therefore, expression of GFAP could be useful to understand the state of neurological diseases.

[3] = Plasma pharmacokinetics of benzoic acid after oral gavage; assay type: in vivo, Sprague-Dawley rats; settings: rat, single oral gavage
Protocol: The plasma concentration of benzoic acid was determined by LC/MS/MS. The chromatographic separation was carried out on a ODS 5 um column (4.6×150 mm, Biosil). The mobile phase consisted of a mixture of 1% mobile phase A and 99% mobile phase B. […] The injection volume was 50 μL and the column temperature was 23° C. All solvents were HPLC grade quality. Plots of plasma concentration of benzoic acid versus time are constructed. The fundamental pharmacokinetic parameters were obtained from non-compartmental analysis (NCA) of the plasma data using WinNonlin.

[4] = 256 mg/kg/day i.p., vs ALS mice treated with vehicle
[5] = NaBen 287.9 mg/kg + Li2CO3 74.2 mg/kg or LiBen 255.3 mg/kg

Q: For `O=C([O-])c1ccccc1.[Li+]` [lithium benzoate], which “proportion of mice surviving over time” value [1, 4] is on record?
A: improved

Q: And the weight change [1, 4]?
A: improved

Q: What about the “hind limb functions (number of rearing movements, rearing time; open field)” value ([1]; cohort 1, female, 256 mg/kg/day i.p. from 8 weeks, about 90 to about 130 days of age, vs saline ALS mice) of the same molecule?
A: significantly improved

Q: What about the “motor functions (hanging test, rotarod test, rearing activity, traveling activity)” value ([1]; cohort 2, male, 256 mg/kg/day i.p. from 10 weeks, about 133 to about 147 days of age, vs saline ALS mice) of the same molecule?
A: improved

Q: And the “neurogenesis (BrdU(+)/NeuN(+) cells) after Aβ25-35 exposure” value (primary cortical cells)?
A: unsurpassed performance of neurogenesis

Q: What about the “reduction of GFAP positive cells compared with LiCl” value ([2]; LiBen 0.5 mM vs LiCl 1 mM) of the same molecule?
A: better effect than LiCl

Q: And the “number of GFAP positive cells after Aβ25-35 exposure” value ([2]; post-treatment 0.5 mM)?
A: significantly reduced

Q: What about the “AUC Extr of benzoic acid” value [3, 5] of the same molecule?
A: 2.63%

Q: And the “AUCInf of benzoic acid” value [3, 5]?
A: 62,874 hr * ng/mL

Q: And the “AUClast of benzoic acid” value [3, 5]?
A: 62,059 hr * ng/mL

Q: And the “Cmax of benzoic acid” value [3, 5]?
A: 109,321 ng/mL

Q: What about the “MRT of benzoic acid” value [3, 5] of the same molecule?
A: 45 min

Q: And the “Tmax of benzoic acid” value ([3]; NaBen 287.9 mg/kg + Li2CO3 74.2 mg/kg or LiBen 255.3 mg/kg (same molarity))?
A: 11.4 min
